Test [1] has as its target T1, pyruvate carboxylase (RePC) (Rhizobium etli, UniProt Q2K340). It is filed as binding.
Test [2] has as its target T1, pyruvate carboxylase (RePC). Format: biochemical.
Test [3] shares this target. Format: biochemical. The source holds these as a separate data set.
Test [4] has the same target. In words: Stopped-flow fluorescence kinetics of MgTNP-ATP binding to pyruvate carboxylase. To be noted: for kobs1 (fast phase of binding) / kobs2 (intermediate phase of binding): 0.5 μM enzyme, double exponential fit; for k-2 / K2 (equilibrium constant between two conformational states, k-2/k2) / k2: intermediate phase.

Read-outs that look alike come from different tables or passages of the source.

By Km is commonly meant the concentration of substrate that gives half-maximal velocity. For orientation: Hill coefficient means a measure of the steepness of the concentration-response curve. Consider `Nc1ncnc2c1ncn2[C@@H]1O[C@H](COP(=O)(O)OP(=O)([O-])OP(=O)([O-])O)[C@@H](O)[C@H]1O.[Mg+2]` [MgATP], for which, in test [1] (addition of 2.5 mM MgATP to 5 μM MgTNP-ATP + 10 μM enzyme + 0.25 mM acetyl CoA), the “further decrease in fluorescence” value is reported as “approximately 13%”. The Km in test [2] (MgATP varied, absence of acetyl CoA, fit to equation (iii), Fig. 6a) is 150 ± 20 µM. For the same compound, the Ki in test [2] (read-out: Ki (substrate inhibition), MgATP varied, absence of acetyl CoA, fit to equation (iii), Fig. 6a) was 8.9 ± 1.2 mM. In addition, in test [3] (activation by MgATP, absence of acetyl CoA, Fig. 6b), the Hill coefficient is given as 3.1 ± 0.5. In addition, in test [3] (between 2 mM and saturating MgATP, absence of acetyl CoA), the increase in activity entry was “approximately 16 fold”. The “apparent Ka (activation of ATP cleavage)” value in test [3] (super-catalytic MgATP, absence of acetyl CoA, fit to equation (iv), Fig. 6b) turned out to be 5.0 ± 0.4 mM. Besides, in test [4] (1 mM MgATP in both syringes, 10 μM MgTNP-ATP), the “effect on kinetics of MgTNP-ATP binding” value is reported as “essentially identical”.
Take `Nc1ncnc2c1ncn2[C@@H]1O[C@H](COP(=O)(O)OP(=O)(O)OP(=O)(O)O)[C@H]2OC3(O[C@H]21)C([N+](=O)[O-])=CC(=[N+]([O-])[O-])C=C3[N+](=O)[O-]` (stereo partly drawn) [MgTNP-ATP, 2′,3′-O-(2,4,6-trinitrophenyl) adenosine 5′-triphosphate]: in test [2] (absence of acetyl CoA, fit to equation (i), Fig. 4c), the “kcat2 for the activation by MgTNP-ATP” value was 1.9 ± 0.1 s⁻¹. The “nt (Hill coefficient)” value was 2.3 ± 0.6 in test [2] (activation by MgTNP-ATP in the absence of acetyl CoA, fit to equation (i), Fig. 4c) and 2.5 ± 0.4 in test [2] (activation by MgTNP-ATP, global fit to equation (ii), Fig. 4b). The “substrate in the overall pyruvate carboxylation reaction” value in test [2] (concentrations up to 0.25 mM) is “not found to be a substrate”. Also, the “kcat2 for the reaction activated by MgTNP-ATP” value in test [2] (global fit to equation (ii), Fig. 4b) was determined as 2.0 ± 0.5 s⁻¹. The “half time of the slowest phase of the binding kinetics” value in test [4] is recorded as “about 20 sec”. The “kobs1 (fast phase of binding)” value stood at 234 ± 26 s⁻¹ in test [4] (10 μM MgTNP-ATP, Fig. 8a) and 475 ± 90 s⁻¹ in test [4] (35 μM MgTNP-ATP, Fig. 8b). Besides, the “kobs2 (intermediate phase of binding)” value in test [4] (10 μM MgTNP-ATP, Fig. 8a) amounted to 11 ± 1 s⁻¹; in test [4] (35 μM MgTNP-ATP, Fig. 8b) it was 19 ± 2 s⁻¹. Also, in test [4] (20 μM MgTNP-ATP, single exponential fit, Fig. 8c), the “k (slow phase of binding)” value worked out at 0.035 ± 0.001 s⁻¹. Further, the “observed first order rate constant, slow phase of binding” value in test [4] (average value across all concentrations of MgTNP-ATP) was 0.035 ± 0.008 s⁻¹. The same compound yielded a k1 in test [4] (fast phase, fit to eq (vi)) of 0.20 ± 0.01 μM^-2s^-1. Moreover, the “k2 (intermediate phase) as percentage of k1 (fast phase)” value in test [4] (fit to equation (ix)) came out at 5.9%. Also, the “k-2 (intermediate phase) as percentage of k-1 (fast phase)” value in test [4] (fit to equation (ix)) amounted to 6.6%. Moreover, the k-2 in test [4] (fit to eq (ix)) amounted to 10.6 ± 0.2 s⁻¹; in test [4] (fit to eq (vii)), 0.6 ± 0.6 s⁻¹; in test [4] (fit to eq (viii)), 10.5 ± 0.2 s⁻¹; in test [4] (fit to eq (x)), 12.6 ± 0.2 s⁻¹; in test [4] (fit to eq (xi)) it was 12.7 ± 0.2 s⁻¹; in test [4] (fit to eq (xii)), 13.5 ± 0.3 s⁻¹. In addition, the “K2 (equilibrium constant between two conformational states, k-2/k2)” value in test [4] (fit to eq (vii)) turned out to be 0.02 ± 0.02; in test [4] (fit to eq (viii)), 0.47 ± 0.05. Further, the k2 in test [4] (fit to eq (vii)) was 31 ± 1 s⁻¹; in test [4] (fit to eq (viii)), 22.6 ± 0.7 s⁻¹; in test [4] (fit to eq (xi)), 0.013 ± 0.001μM^-2s^-1; in test [4] (fit to eq (xii)), 0.016 ± 0.001 μM^-2 s^-1.
As for `CC(=O)SCCNC(=O)CCNC(=O)[C@H](O)C(C)(C)COP(=O)(O)OP(=O)(O)OC[C@H]1O[C@@H](n2cnc3c(N)ncnc32)[C@H](O)[C@@H]1OP(=O)(O)O` [acetyl CoA], the “decrease in maximum fluorescence intensity” value in test [1] (addition of 0.25 mM acetyl CoA to 5 μM MgTNP-ATP + 10 μM enzyme) was “approximately 32%”. For the same compound, in test [2] (activation by acetyl CoA, fit to equation (i), Fig. 4a), the “n (Hill coefficient)” value amounted to 2.6 ± 0.2. Moreover, the “Ka (activation constant)” value in test [2] (activation by acetyl CoA, fit to equation (i), Fig. 4a, 30°C, pH 7.8) was determined as 6.9 ± 0.2 µM. In test [2] (saturating acetyl CoA, fit to equation (i), Fig. 4a), the kcat2 worked out at 20.2 ± 0.1 s⁻¹. For the same compound, the “increase in the turnover number for ATP cleavage” value in test [3] (induced by acetyl CoA when MgATP is present up to 1 mM (data not shown)) is reported as 7 fold.

The record behind these values is paper PMC3238500 (Archives of biochemistry and biophysics, 2011).
